Measured values as given in patent publication US20230234920A1, “Azirine Containing Compounds as Anti-Angiogenesis Agents and a Process for the Preparation Thereof” (COUNCIL OF SCIENTIFIC & INDUSTRIAL RESEARCH, priority 2020, published 2023).
Like-named read-outs stand apart in the source and are kept apart here. Values belong to the molecule of their own block, whether it stands above or below them.

Key:
[1] = Intramuscular pharmacokinetic study of chiral isomers 1 and 2; format: in vivo, male Sprague Dawley (SD) rats; conditions: IM 20 mg/kg
Protocol: In vivo pharmacokinetic study was performed in male Sprague Dawley (SD) rats (n=4). Intramuscular (IM) formulation of compound 1 Chiral 1 and 2 were prepared by individually dissolving accurately weighed quantity of compound 1, chiral isomers 1 and 2 (20 mg) in 1 mL of olive oil followed by vortexing for 2 min and sterilize through syringe filter. Blood samples were collected from the retro orbital plexus of rats under light ether anesthesia into microfuge tubes containing heparin as an anti-coagulant at 0.25, 0.5, 1, 3, 5, 7, 9, 24, 30, 48 and 72 hours post-dosing after intramuscular dose. Plasma sample was harvested by centrifuging the blood at 13000 rpm for 10 min on Sigma 1-15 K (Frankfurt, Germany) and stored frozen at −70±10° C. until bioanalysis. Each plasma sample (100 μl) was processed using protein precipitation method using 200 μl acetonitrile containing medicarpine as internal standard (I.S.) as protein precipitant, and 10 μl of the supernatant was injected for LC-MS/MS.

[2] = Intramuscular pharmacokinetic study of bulk compound 1 and chiral isomers; format: in vivo, male Sprague Dawley (SD) rats; conditions: IM 20 mg/kg
Protocol: In vivo pharmacokinetic study was performed in male Sprague Dawley (SD) rats (n=4). Intramuscular (IM) formulation of bulk of compound 1 as well as chiral isomer-1 and chiral isomer-2 was prepared by dissolving accurately weighed quantity of compound 1 (20 mg) in 1 mL of olive oil followed by vortexing for 2 min and sterilize through syringe filter. Blood samples were collected from the retro orbital plexus of rats under light ether anesthesia into microfuge tubes containing heparin as an anti-coagulant at 0.25, 0.5, 1, 3, 5, 7, 9, 24, 30, 48 and 72 hours post-dosing after intramuscular dose. Plasma sample was harvested by centrifuging the blood at 13000 rpm for 10 min on Sigma 1-15 K (Frankfurt, Germany) and stored frozen at −70±10° C. until bioanalysis. Each plasma sample (100 μl) was processed using protein precipitation method using 200 μl acetonitrile containing medicarpine as internal standard (I.S.) as protein precipitant, and 10 μl of the supernatant was injected for LC-MS/MS.

HUVECs = assay: Capillary-like tube formation assay (tubulogenesis); format: cell-based, human; conditions: for tubule formation: 6 h; for IC50: Homo sapiens, HUVEC, read-out: IC50 value
Protocol: FIG. 2 represents effect of Compound 1 on capillary tube formation of HUVECs. Endothelial cells in Matrigel were incubated with ECM basal medium in the presence of compound 1 at the indicated concentrations for 6 h. Cell viability was assessed by Calcein-AM dye added few min. before the completion of 6 h. then photographs at 10×magnification were taken using an inverted microscope. The tubule length of HUVECs was quantified by Leica QWin software. Tubule network formation is expressed as a percentage of that vehicle (0.1% DMSO) treated cells (control).
FIG. 9 represents effect of racemic mixture (chiral isomer 1-1 and chiral isomer 2-1) of Compound 1 on capillary tube formation of HUVECs. Endothelial cells seeded in matrigel were incubated at the indicated concentrations of compound 1 racemic mixtures (1-1 and 2-1) with ECM basal medium for 6 h. Calcein-AM treatment was added to the ECs few minutes before completion of 6 h and pictures were captured using an inverted microscope at 10×magnification. The tubular structures of HUVECs were measured using Leica QWin software and tubulogenesis was expressed as a % of that vehicle (0.1% DMSO) treated cells (control) well.
HUVEC cells were incubated with or without sunitinib (20 nM) for 6 h at indicated concentrations of chiral isomers of Compound 1 (1-1 and 2-1). Photographs were taken using an inverted microscope at 10×magnification after Calcein-AM treatment to the ECs few minutes before completion of 6 h. The tubule length of HUVECs was quantified by Leica QWin software represented as a % of that vehicle (0.1% DMSO) treated cells (control) well.
To examine the effect of Compound 1 on angiogenesis, capillary tube formation assay was performed on regular or reduced growth factor Matrigel, taking VEGF (50 ng/mL) treated cells as a positive control and sunitinib (50 nM) as a negative control (FIG. 2). HUVECs seeded onto the matrigel with compound 1 at different concentrations of (10 μM, 5 μM, 1 μM, 800 nM, 500 nM, 250 nM, 125 nM, 75 nM, 50 nM, 25 nM and 10 nM) were incubated for six hours.
HUVECs (Human Umbilical Vein Endothelial Cells) were seeded onto the pre-coated matrigel (CORNING; 354230) in 96 wells plate at the rate of 11000 cells/well in incomplete ECM basal medium. Control group received vehicle, VEGF at 50 ng/mL as a positive and sunitinib at 50 nM as a negative control were used. Compound 1 at different dose concentrations (10 μM, 5 μM, 1 μM, 800 nM, 500 nM, 250 nM, 100 nM, 75 nM, 50 nM and 25 nM) were employed on seeded HUVECs in incomplete medium. Post 6 h of incubation Calcein-AM (Invitrogen) was added to all the respective groups and then the tubule pattern was observed and photographs were taken using an inverted fluorescent microscope (DM 6000, Leica Microsystems, USA). Relative tubule lengths were measured using Leica Q-Win software version 3.5.1. (Leica Microsystems, Switzerland).

[3] = male, Sprague-Dawley, rat, plasma, mean ± S.D., n = 4
[4] = male, Sprague-Dawley, rat, plasma, mean ± S.D., n = 4, read-out: AUC0-72
[5] = male, Sprague-Dawley, rat, plasma, mean ± S.D., n = 4, read-out: Cmax
[6] = male, Sprague-Dawley, rat, plasma, intramuscular, 0.25 h
[7] = male, Sprague-Dawley, rat, plasma, intramuscular, 0.5 h
[8] = male, Sprague-Dawley, rat, plasma, intramuscular, 1 h
[9] = male, Sprague-Dawley, rat, plasma, intramuscular, 3 h
[10] = male, Sprague-Dawley, rat, plasma, intramuscular, 5 h
[11] = male, Sprague-Dawley, rat, plasma, intramuscular, 7 h
[12] = male, Sprague-Dawley, rat, plasma, intramuscular, 9 h
[13] = male, Sprague-Dawley, rat, plasma, intramuscular, 24 h
[14] = male, Sprague-Dawley, rat, plasma, intramuscular, 30 h
[15] = male, Sprague-Dawley, rat, plasma, intramuscular, 48 h
[16] = male, Sprague-Dawley, rat, plasma, intramuscular, 72 h
[17] = endothelial tubule network assay, anti-angiogenic activity

Cl ([1]; mean ± S.D., n = 4): 0.16 ± 0.03 L/h/kg | Vd ([1]; mean ± S.D., n = 4): 3.2 ± 0.84 L/kg | AUC(0-inf) [1, 3]: 121 ± 24.1 µg·h/mL | half-life [1, 3]: 13.3 ± 1.51 h | AUC(0-t) [1, 4]: 118 ± 24.8 µg·h/mL | Cmax [1, 5]: 4.81 ± 1.56 µg/mL | Tmax ([1]; male, Sprague-Dawley, rat, plasma, read-out: Tmax): 9 h | Cl ([2]; mean ± S.D., n = 4): 0.182 ± 0.0249 L/h/kg | Vd ([2]; mean ± S.D., n = 4): 4.273 ± 1.167 L/kg | concentration at 0.25 h [2, 6]: 1.68 ± 1.06 µg/mL | concentration at 0.5 h [2, 7]: 2.09 ± 1.65 µg/mL | concentration at 1 h [2, 8]: 2.58 ± 1.96 µg/mL | concentration at 3 h [2, 9]: 2.56 ± 0.59 µg/mL | concentration at 5 h [2, 10]: 2.46 ± 0.88 µg/mL | concentration at 7 h [2, 11]: 2.12 ± 0.94 µg/mL | concentration at 9 h [2, 12]: 3.44 ± 0.26 µg/mL | concentration at 24 h [2, 13]: 2.47 ± 0.57 µg/mL | concentration at 30 h [2, 14]: 1.73 ± 0.15 µg/mL | concentration at 48 h [2, 15]: 0.593 ± 0.22 µg/mL | concentration at 72 h [2, 16]: 0.109 ± 0.04 µg/mL | AUC(0-inf) [2, 3]: 111 ± 15 µg·h/mL | half-life [2, 3]: 16 ± 2.38 h | AUC(0-t) [2, 4]: 108 ± 15.9 µg·h/mL | Cmax [2, 5]: 3.91 ± 0.847 µg/mL | MRT ([2]; male, Sprague-Dawley, rat, plasma, mean ± S.D., n = 4, read-out: MRT): 21 ± 0.463 h | Tmax ([2]; male, Sprague-Dawley, rat, plasma, mean ± S.D., n = 4, read-out: Tmax): 6.33 ± 4.62 h
Structure (SMILES): CCOC(=O)[C@H]1N=C1CCc1ccc(OC)cc1 (single isomer, unassigned) [Chiral isomer (1-1)]

concentration at 0.25 h [1, 6]: 1.52 ± 0.36 µg/mL | concentration at 0.5 h [1, 7]: 2.15 ± 0.83 µg/mL | concentration at 1 h [1, 8]: 3.02 ± 1.33 µg/mL | concentration at 3 h [1, 9]: 3.17 ± 0.94 µg/mL | concentration at 5 h [1, 10]: 3.57 ± 0.1 µg/mL | concentration at 7 h [1, 11]: 3.58 ± 0.75 µg/mL | concentration at 9 h [1, 12]: 4.81 ± 1.56 µg/mL | concentration at 24 h [1, 13]: 1.93 ± 0.38 µg/mL | concentration at 30 h [1, 14]: 1.55 ± 0.36 µg/mL | concentration at 48 h [1, 15]: 0.545 ± 0.09 µg/mL | concentration at 72 h [1, 16]: 0.11 ± 0.04 µg/mL
Structure (SMILES): CCOC(=O)[C@H]1N=C1CCc1ccc(OC)cc1 [Chiral isomer (1-1)]
tubule formation (HUVECs; 100 nM combined with sunitinib at 20 nM): approximately 15% | tubule formation (HUVECs; 250 nM): 100% | tubule formation (HUVECs; 500 nM): 50% | tubule formation (HUVECs; 1 μM): 50%

Structure (SMILES): COc1ccc(CCC2=NC2C#N)cc1 (stereo not shown) [Compound 48, 3-(4-Methoxyphenethyl)-2H-azirine-2-carbonitrile]
IC50 (HUVECs): 0.25 µM

Structure (SMILES): CCOP(=O)(OCC)C1N=C1CCc1ccc(OC)cc1 (stereo not shown) [Compound 49, Diethyl (3-(4-methoxyphenethyl)-2H-azirin-2-yl)phosphonate]
IC50 (HUVECs): 0.25 µM

Structure (SMILES): CCOC(=O)C1N=C1CCc1ccc(OC2CCOC2)cc1 (stereo not shown) [Compound 50, Ethyl 3-(4-((tetrahydrofuran-3-yl)oxy)phenethyl)-2H-azirine-2-carboxylate]
IC50 (HUVECs; [17]): 0.25 µM

Structure (SMILES): COc1ccc(CCC2=NC2c2nnn[nH]2)cc1 (stereo not shown) [Compound 51, 5-(3-(4-Methoxyphenethyl)-2H-azirin-2-yl)-1H-tetrazole]
IC50 (HUVECs; [17]): 0.1 µM | remarks (HUVECs; remark on IC50 versus sunitinib): comparable to sunitinib
